Results published in ChEMBL document CHEMBL3046814, “Induction effects of host plants on insecticide susceptibility and detoxification enzymes of Bemisia tabaci (Hemiptera: Aleyrodidae)” (2011).
Converted amounts (≈) assume the structure as drawn.

Tests used:
Format in all cases: functional
Bemisia tabaci [1] = assay: Resistance ratio of LC50 for Bemisia tabaci (sweet potato whitefly) infested poinsettia leaves to LC50 for Bemisia tabaci (sweet potato whitefly) infested cucumber leaves
Bemisia tabaci [2] = assay: Insecticidal activity against Bemisia tabaci (sweet potato whitefly) infested cabbage leaves assessed as mortality after 48 hr by leaf dip method; details: foliar
Bemisia tabaci [3] = assay: Resistance ratio of LC50 for Bemisia tabaci (sweet potato whitefly) infested poinsettia leaves to LC50 for Bemisia tabaci (sweet potato whitefly) infested tomato leaves
Bemisia tabaci [4] = assay: Insecticidal activity against Bemisia tabaci (sweet potato whitefly) infested tomato leaves assessed as mortality after 48 hr by leaf dip method; details: foliar
Bemisia tabaci [5] = assay: Insecticidal activity against Bemisia tabaci (sweet potato whitefly) infested cucumber leaves assessed as mortality after 48 hr by leaf dip method; details: foliar
Bemisia tabaci [6] = assay: Insecticidal activity against Bemisia tabaci (sweet potato whitefly) infested cotton leaves assessed as mortality after 48 hr by leaf dip method; details: foliar
Bemisia tabaci [7] = assay: Insecticidal activity against Bemisia tabaci (sweet potato whitefly) infested poinsettia leaves assessed as mortality after 48 hr by leaf dip method; details: foliar
Bemisia tabaci [8] = assay: Resistance ratio of LC50 for Bemisia tabaci (sweet potato whitefly) infested squash leaves to LC50 for Bemisia tabaci (sweet potato whitefly) infested cabbage leaves
Bemisia tabaci [9] = assay: Resistance ratio of LC50 for Bemisia tabaci (sweet potato whitefly) infested squash leaves to LC50 for Bemisia tabaci (sweet potato whitefly) infested cotton leaves
Bemisia tabaci [10] = assay: Resistance ratio of LC50 for Bemisia tabaci (sweet potato whitefly) infested poinsettia leaves to LC50 for Bemisia tabaci (sweet potato whitefly) infested cabbage leaves

SMILES	RatioLC50 (Bemisia tabaci [1])	LC50 (Bemisia tabaci [2]) [µg/mL]	RatioLC50 (Bemisia tabaci [3])	LC50 (Bemisia tabaci [4]) [µg/mL]	LC50 (Bemisia tabaci [5]) [µg/mL]	LC50 (Bemisia tabaci [6]) [µg/mL]	LC50 (Bemisia tabaci [7]) [µg/mL]	RatioLC50 (Bemisia tabaci [8])	RatioLC50 (Bemisia tabaci [9])	RatioLC50 (Bemisia tabaci [10])
C/C(=N\C#N)N(C)Cc1ccc(Cl)nc1 [ACETAMIPRID]	10.34	17.7 (≈ 79.5 µM)	14.8	8.73 (≈ 39.2 µM)	12.4 (≈ 55.7 µM)	66.4 (≈ 298 µM)	129 (≈ 579 µM)			
CCOP(=S)(OCC)Oc1nc(Cl)c(Cl)cc1Cl [CHLORPYRIFOS]		722 (≈ 2060 µM)	3.65	581 (≈ 1660 µM)	924 (≈ 2640 µM)	1410 (≈ 4030 µM)	2120 (≈ 6040 µM)			
Cc1c(COC(=O)[C@@H]2[C@H](/C=C(\Cl)C(F)(F)F)C2(C)C)cccc1-c1ccccc1 [BIFENTHRIN]		145 (≈ 343 µM)	4.02	115 (≈ 272 µM)	462 (≈ 1090 µM)	228 (≈ 539 µM)	278 (≈ 657 µM)	7.5	7.5	3.19
CCCCN(CCCC)SN(C)C(=O)Oc1cccc2c1OC(C)(C)C2 [CARBOSULFAN]		696 (≈ 1830 µM)	6.36	586 (≈ 1540 µM)	3090 (≈ 8110 µM)	2880 (≈ 7560 µM)	3730 (≈ 9790 µM)			5.36
N#Cc1nn(-c2c(Cl)cc(C(F)(F)F)cc2Cl)c(N)c1[S+]([O-])C(F)(F)F (centres undefined) [FIPRONIL]		3.82 (≈ 8.74 µM)		5.96 (≈ 13.6 µM)	8.79 (≈ 20.1 µM)	3.51 (≈ 8.03 µM)	9.13 (≈ 20.9 µM)			
CC[C@H](C)[C@H]1O[C@]2(C=C[C@@H]1C)C[C@@H]1C[C@@H](C/C=C(\C)[C@@H](O[C@H]3C[C@H](OC)[C@@H](O[C@H]4C[C@H](OC)[C@@H](O)[C@H](C)O4)[C@H](C)O3)[C@@H](C)/C=C/C=C3\CO[C@@H]4[C@H](O)C(C)=C[C@@H](C(=O)O1)[C@]34O)O2.CO[C@H]1C[C@H](O[C@H]2[C@H](C)O[C@@H](O[C@@H]3/C(C)=C/C[C@@H]4C[C@@H](C[C@]5(C=C[C@H](C)[C@@H](C(C)C)O5)O4)OC(=O)[C@@H]4C=C(C)[C@@H](O)[C@H]5OC/C(=C\C=C\[C@@H]3C)[C@]54O)C[C@@H]2OC)O[C@@H](C)[C@@H]1O [ABAMECTIN]		0.3		0.4	0.5	0.7	0.74			
